Experimental data as given in patent publication US20120219615A1, “Therapeutic Use of a TLR Agonist and Combination Therapy” (The Trustees of the University of Pennsylvania, priority 2010, published 2012).
pEC50: −log10 of the molar value.

How the values were obtained:
TLR8 = target: T1, TLR8 (Homo sapiens, UniProt Q9NR97); assay: TNFα production in PBMCs (marker of TLR8 activation); type: cell-based
T1 construct: assessed in peripheral blood mononuclear cells (PBMCs) from 15 healthy donors; endogenous in cells; host or cells: PBMCs from 15 healthy donors
T1 sequence (Q9NR97 27-1041): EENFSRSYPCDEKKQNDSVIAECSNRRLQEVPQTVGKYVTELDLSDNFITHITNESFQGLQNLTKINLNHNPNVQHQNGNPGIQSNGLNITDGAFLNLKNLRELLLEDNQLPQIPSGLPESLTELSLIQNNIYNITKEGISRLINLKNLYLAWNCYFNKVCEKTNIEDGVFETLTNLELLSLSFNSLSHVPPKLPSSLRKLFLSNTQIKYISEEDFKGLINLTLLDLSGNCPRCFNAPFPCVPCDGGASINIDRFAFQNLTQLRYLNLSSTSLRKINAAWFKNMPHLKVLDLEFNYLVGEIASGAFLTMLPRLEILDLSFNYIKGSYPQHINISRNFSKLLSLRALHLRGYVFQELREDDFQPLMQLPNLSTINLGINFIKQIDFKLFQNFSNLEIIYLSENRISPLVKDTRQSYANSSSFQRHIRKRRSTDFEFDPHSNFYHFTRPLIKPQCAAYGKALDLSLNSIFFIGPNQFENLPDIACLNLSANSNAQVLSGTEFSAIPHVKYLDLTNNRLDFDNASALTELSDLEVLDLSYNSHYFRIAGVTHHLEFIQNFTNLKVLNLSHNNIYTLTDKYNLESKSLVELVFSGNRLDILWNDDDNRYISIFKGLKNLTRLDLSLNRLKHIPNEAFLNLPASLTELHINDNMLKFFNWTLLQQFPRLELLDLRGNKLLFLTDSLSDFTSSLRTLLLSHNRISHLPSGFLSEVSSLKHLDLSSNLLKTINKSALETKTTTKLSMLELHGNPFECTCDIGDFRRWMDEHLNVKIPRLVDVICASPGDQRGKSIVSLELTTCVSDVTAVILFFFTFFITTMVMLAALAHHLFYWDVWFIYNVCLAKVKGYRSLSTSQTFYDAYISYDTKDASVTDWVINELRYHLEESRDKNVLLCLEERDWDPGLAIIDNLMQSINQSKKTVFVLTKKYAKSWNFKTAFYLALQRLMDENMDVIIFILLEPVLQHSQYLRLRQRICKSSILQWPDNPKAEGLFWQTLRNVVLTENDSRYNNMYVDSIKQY
Procedure: (§1) The half-maximal effective concentration (EC50) for VTX-2337 activation of TLR8 and TLR7 was assessed in peripheral blood mononuclear cells (PBMCs) from 15 healthy donors and also in HEK293 cells transfected with TLR8 or TLR7 and an NF-κB driven reporter gene. […] Also it was observed that VTX-2337 had no activity on TLR2, TLR3, TLR4, TLR5, TLR6, or TLR9 at concentrations up to 25 μM.

TLR6 = TLR6 (Homo sapiens, UniProt O60603+Q9Y2C9); assay: Activity on TLR6; type: cell-based; details: concentrations up to 25 μM
TLR6, sequence (Q9Y2C9 32-796, species assumed): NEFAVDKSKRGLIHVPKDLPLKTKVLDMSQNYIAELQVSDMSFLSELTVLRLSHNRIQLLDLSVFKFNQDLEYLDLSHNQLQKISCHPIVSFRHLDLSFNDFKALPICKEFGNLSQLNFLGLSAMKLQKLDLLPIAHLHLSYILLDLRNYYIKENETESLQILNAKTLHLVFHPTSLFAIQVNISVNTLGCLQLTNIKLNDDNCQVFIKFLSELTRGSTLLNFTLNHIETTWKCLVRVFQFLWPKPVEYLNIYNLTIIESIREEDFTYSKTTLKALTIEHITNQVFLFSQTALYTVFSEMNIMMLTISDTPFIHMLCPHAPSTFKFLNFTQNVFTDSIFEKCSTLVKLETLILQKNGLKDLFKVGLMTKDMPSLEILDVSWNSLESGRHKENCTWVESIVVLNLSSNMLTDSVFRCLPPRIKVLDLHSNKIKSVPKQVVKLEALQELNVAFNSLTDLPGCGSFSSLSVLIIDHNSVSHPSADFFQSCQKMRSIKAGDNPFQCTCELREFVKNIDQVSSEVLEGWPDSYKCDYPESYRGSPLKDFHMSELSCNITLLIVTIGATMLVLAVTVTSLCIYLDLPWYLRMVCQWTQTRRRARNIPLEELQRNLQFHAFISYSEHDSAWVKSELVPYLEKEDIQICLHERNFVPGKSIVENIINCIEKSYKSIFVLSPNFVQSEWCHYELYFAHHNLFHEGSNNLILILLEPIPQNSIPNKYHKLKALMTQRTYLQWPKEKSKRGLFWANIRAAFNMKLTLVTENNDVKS
TLR6, sequence (O60603 21-784, species assumed): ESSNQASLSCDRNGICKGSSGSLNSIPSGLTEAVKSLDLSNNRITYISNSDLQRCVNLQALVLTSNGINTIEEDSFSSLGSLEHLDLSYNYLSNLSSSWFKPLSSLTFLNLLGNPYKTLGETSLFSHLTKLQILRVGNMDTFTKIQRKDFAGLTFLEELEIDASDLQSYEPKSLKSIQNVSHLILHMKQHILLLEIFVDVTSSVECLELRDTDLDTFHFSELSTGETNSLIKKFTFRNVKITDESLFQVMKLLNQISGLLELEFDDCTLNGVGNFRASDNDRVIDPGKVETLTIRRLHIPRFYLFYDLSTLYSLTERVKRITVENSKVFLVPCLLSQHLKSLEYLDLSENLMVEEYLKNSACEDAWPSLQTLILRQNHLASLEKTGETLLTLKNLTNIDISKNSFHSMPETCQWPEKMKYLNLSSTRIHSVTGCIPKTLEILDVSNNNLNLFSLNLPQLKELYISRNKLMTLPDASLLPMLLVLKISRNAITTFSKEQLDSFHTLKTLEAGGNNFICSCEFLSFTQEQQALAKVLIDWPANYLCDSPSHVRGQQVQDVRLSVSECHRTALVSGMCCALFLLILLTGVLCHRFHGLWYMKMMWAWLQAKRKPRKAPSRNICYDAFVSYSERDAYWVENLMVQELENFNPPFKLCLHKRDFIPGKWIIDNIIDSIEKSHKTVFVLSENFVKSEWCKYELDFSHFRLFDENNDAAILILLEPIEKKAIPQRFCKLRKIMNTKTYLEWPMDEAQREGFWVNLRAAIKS
Procedure: as §1

pEC50 (TLR8; PBMCs from 15 healthy donors): 7.13
selectivity for TLR8 relative to TLR7 (TLR8; PBMCs, TNFα vs IFNα EC50): > 45 fold
activity on TLR6 (TLR6): no activity
SMILES: CCCN(CCC)C(=O)C1=Cc2ccc(-c3ccc(C(=O)N4CCCC4)cc3)cc2N=C(N)C1 [VTX-2337, 2-amino-N,N-dipropyl-8-(4-(pyrrolidine-1-carbonyl)phenyl)-3H-benzo[b]azepine-4-carboxamide]
